{"source": "patent US6872725B2", "about": "“Solid-state forms of N-(2-hydroxyacetyl)-5-(4-piperidyl)-4-(4-pyrimidinyl)-3-(4-chlorophenyl) pyrazole” (Pharmacia Corporation, priority 2001, dated 2005)", "key": {"[1]": {"test": "physical stability of solid-state forms at ambient temperatures", "assay_type": "physicochemical", "details": "compared with the other solid-state forms of Compound 1", "description": "In one embodiment, the invention comprises the Form I polymorph of Compound 1. […] Similarly, selection of a solid-state form of Compound 1 that is physically stable over a wide range of storage conditions (especially considering the different possible storage conditions that can occur during the lifetime of a Compound 1 product) can help avoid polymorphic or other degradative changes in the Compound 1 that can lead to product loss or deterioration of product efficacy."}, "[2]": {"test": "slurry conversion of dihydrate crystals to Form I polymorph in tetrahydrofuran/water", "assay_type": "physicochemical", "details": "80:20 tetrahydrofuran/water mixture (volume basis), 25° C.", "procedure": "The dihydrate crystalline form of Compound 1 also can be prepared, for example, by slurry conversion of the Form II polymorph in a tetrahydrofuran/water mixture. A sufficient amount of the Form II polymorph is added to an 80:20 tetrahydrofuran/water mixture (volume basis) to form a saturated solution at 25° C. The solution then spontaneously desaturates by precipitating dihydrate crystals. Once precipitated, the dihydrate crystals eventually convert to the more thermodynamically stable Form I polymorph."}}}
{"smiles": "O=C(CO)N1CCC(c2[nH]nc(-c3ccc(Cl)cc3)c2-c2ccncn2)CC1", "note": "[Form I polymorph, N-(2-hydroxyacetyl)-5-(4-piperidyl)-4-(4-pyrimidinyl)-3-(4-chlorophenyl)pyrazole]", "values": [{"measurement": "physical stability at ambient temperatures", "setting": "[1]", "result": "greater physical stability at ambient temperatures than the other solid-state forms of Compound 1"}]}
{"smiles": "O=C(CO)n1nc(-c2ccc(Cl)cc2)c(-c2ccncn2)c1C1CCNCC1", "note": "[dihydrate crystalline form, N-(2-hydroxyacetyl)-5-(4-piperidyl)-4-(4-pyrimidinyl)-3-(4-chlorophenyl)pyrazole]", "values": [{"measurement": "time before conversion to the more thermodynamically stable Form I polymorph", "setting": "[2]", "result": "does not take place for about four days"}]}
